Molecules are shown by their SMILES. Peptide text beside a SMILES is read from it. * marks the point of attachment. X1 = CC(C)C[C@@H](CS(N)(=O)=O)N*

This assay is described as follows: Compound was tested for inhibition of anti-beta-endorphin monoclonal antibody by using ELISA assay. Format: functional. (In general: ELISA stands for enzyme-linked immunosorbent assay.)
In general, IC50 refers to the concentration needed to halve the response being measured. Low readings indicate higher potency, high ones lower potency. On to `CC(C)C[C@H](NS(=O)(=O)C[C@H](Cc1ccccc1)NC(=O)CNC(=O)CNC(=O)[C@@H](N)Cc1ccc(O)cc1)C(N)=O`, for which the half-inhibitory concentration (IC50) worked out at 0.9 µM.

On to `CC(C)C[C@H](NC(=O)[C@H](Cc1ccccc1)NC(=O)CNS(=O)(=O)CCNC(=O)[C@@H](N)Cc1ccc(O)cc1)C(=O)O`, for which the half-maximal inhibitory concentration (IC50) is above 200 µM.

`CC(C)C[C@H](NC(=O)[C@H](Cc1ccccc1)NS(=O)(=O)CCNC(=O)CNC(=O)[C@@H](N)Cc1ccc(O)cc1)C(N)=O` displayed an IC50 of 85 µM.

With `CC(C)C[C@H](NC(=O)[C@H](Cc1ccccc1)NC(=O)CNS(=O)(=O)CCNC(=O)[C@@H](N)Cc1ccc(O)cc1)C(N)=O`, the concentration for half-maximal inhibition (IC50) was 75 µM. The IC50 values of the last two molecules are within 1.5-fold of each other.

Take `CC(C)C[C@H](NS(=O)(=O)C[C@H](Cc1ccccc1)NC(=O)CNC(=O)CNC(=O)[C@@H](N)Cc1ccc(O)cc1)C(=O)O`: inhibition was half-maximal at 5 µM (IC50).

Take `CC(C)C[C@H](NC(=O)[C@H](Cc1ccccc1)NS(=O)(=O)CCNC(=O)CNC(=O)[C@@H](N)Cc1ccc(O)cc1)C(=O)O`: the IC50 is above 200 µM.

Take `CC(C)C[C@@H](CS(N)(=O)=O)NC(=O)[C@H](Cc1ccccc1)NC(=O)CNC(=O)CNC(=O)[C@@H](N)Cc1ccc(O)cc1` (H-YGGF-X1): 0.1 µM corresponded to half-maximal inhibition (IC50). In other words, the sub-micromolar range.

On to `CC(C)C[C@H](NC(=O)[C@H](Cc1ccccc1)NC(=O)CNC(=O)CNC(=O)[C@@H](N)Cc1ccc(O)cc1)C(N)=O` [[LEU5]ENKEPHALIN], for which the IC50 was determined as 0.07 µM.
